# Experimental data: patent US7947688B2, “N-[3-(3-substituted-pyrazolo[1,5-a]pyrimidin-7-yl)phenyl]-sulfonamides, and compositions, and methods related thereto” (Ferrer Internacional, S.A., priority 2003, dated 2011)
# Legend:
# male CD1 mice = assay: Predictive sedation-hypnosis test in mice (motor activity, crossings); format: in vivo; conditions: single equimolecular intraperitoneal dose, crossings over 30 min after dosing (first 5 min discarded) versus control
# Protocol: • In vivo determination of predictive sedative-hypnotic action.
# The in vivo effects of these compounds were assessed by a predictive sedation-hypnosis test in mice (D. J. Sanger et al., Eur. J. Pharmacol., 313, 35-42, 1996; and G. Griebel et al., Psychopharmacology, 146, 205-213, 1999). Groups of 5-8 male CD1 mice, weighing 22-26 g at the time of test, were used. The test compounds were administered in single equimolecular intraperitoneal doses, suspended in 0.25% agar with one drop of Tween in a volume of 10 ml/kg. Control animals received the vehicle alone. Using an Actisystem DAS16 (Panlab, S. L., Spain) the crossings (number of counts) were recorded for each mouse at 5-min intervals during a period of 30 minutes after dosing. The inhibition percentage of crossings of treated animals versus control animals (the first 5 min were discarded) was calculated.
# α2-GABAA receptor = α2-GABAA receptor (Rattus norvegicus, UniProt P18508+P23576); assay: Ligand-binding assay, radiolabeled flumazenil competition, rat spinal cord membranes; conditions: for inhibition at 10 µM: read-out: % Inhibition (10^−5 M), affinity for α2-GABAA receptor; for inhibition at 0.1 µM: read-out: % Inhibition (10^−7 M), affinity for α2-GABAA receptor
# Protocol: Determination of the affinity of test compounds for α1- and α2-GABAA receptor.
# Male Sprague-Dawley rats weighing 200-250 g at the time of experiment were used. After decapitation of the animal, the cerebellum (tissue that mostly contains α1-GABAA receptor) and spinal cord (tissue that mostly contains α2-GABAA receptor) were removed. The membranes were prepared according to the method by J. Lameh et al. (Prog. Neuro-Psychopharmacol. Biol. Psychiatry, 24, 979-991, 2000). Once the tissues weighed, they were suspended in 50 mM Tris.HCl (pH 7.7), 1:40 (v/v), homogenized and then centrifuged at 20000 g for 10 min at 7° C. The resulting pellet was resuspended under the same conditions and centrifuged again. The pellet was finally resuspended on a minimum volume and kept at −80° C. overnight. On the next day, the process was repeated until the final pellet was resuspended at a ratio of 1:10 (v/v).
# Affinity was determined by competitive tests using radiolabeled flumazenil as ligand. The tests were performed according to the methods described by S. Arbilla et al. (Eur. J. Pharmacol., 130, 257-263, 1986); and Y. Wu et al. (Eur. J. Pharmacol., 278, 125-132, 1995). The membranes containing the study receptors, flumazenil (radiolabeling at a final concentration of 1 nM) and ascending concentrations of test compounds (in a total volume of 500 μl in […] [ph 7.4] Tris.HCl buffer) were incubated. Simultaneously, the membranes were only incubated with the radiolabeled flumazenil (total binding, 100%) and in the presence of an elevated concentration of unradiolabeled flumazenil (non-specific binding, % estimation of radiolabeled ligand). The reactions started on adding the radiolabeled ligand followed by incubation for 60 minutes at 0° C. At the end of the incubation period, the tubes were filtered using a Brandel Mod. M-48R harvester and then washed three times with cold test buffer. The harvester was fitted with a GF/B filter that retained the membranes containing the receptors and the radiolabeled ligand which had been bound to the receptors. Then the filters were removed and left till dry. Once dried, the filters were cut, placed in vials with scintillation liquid and left under stirring overnight. The next day the filters were counted using a Packard Mod. Tricarb scintillation counter.
# X: amount of bound ligand for every concentration of compound.
# T: total binding, maximum amount bound to the radiolabeled ligand.
# N: non-specific binding, amount of radiolabeled ligand bound in a non-specific way irrespective of the receptor used.
# Every concentrations of compound were tested in duplicate and their mean values were used to determine the experimental values of % specific binding versus the concentration of compound. […] Inhibition constants (Ki) were calculated from the IC50 values according to Cheng-Prusoff's formula (Y. Cheng y W. H. Prusoff, Biochem. Pharmacol., 22(23), 3099-3108, 1973).
SMILES,% Motor Activity Inhibition (male CD1 mice) [%],inhibition at 10 µM (α2-GABAA receptor) [%],inhibition at 0.1 µM (α2-GABAA receptor) [%]
"CN(c1cccc(-c2ccnc3c(C(=O)c4ccc(F)cc4)cnn23)c1)S(C)(=O)=O [Example 51, N-methyl-N-{3-[3-(fluorobenzene-4-carbonyl)-pyrazolo[1,5-a]pyrimidin-7-yl]-phenyl}-methanesulfonamide]",90.04,94.7,16.8
"CCN(c1cccc(-c2ccnc3c(C(=O)c4ccc(F)cc4)cnn23)c1)S(C)(=O)=O [Example 52, N-ethyl-N-{3-[3-(fluorobenzene-4-carbonyl)-pyrazolo[1,5-a]pyrimidin-7-yl]-phenyl}-methanesulfonamide]",92.83,61.2,0
"CCS(=O)(=O)N(C)c1cccc(-c2ccnc3c(C(=O)c4ccc(F)cc4)cnn23)c1 [Example 53, N-methyl-N-{3-[3-(fluorobenzene-4-carbonyl)-pyrazolo[1,5-a]pyrimidin-7-yl]-phenyl}-ethanesulfonamide]",94.89,89.8,1
"CCN(c1cccc(-c2ccnc3c(C(=O)c4ccc(OC)cc4)cnn23)c1)S(C)(=O)=O [Example 58, N-ethyl-N-{3-[3-(4-methoxybenzoyl)-pyrazolo[1,5-a]pyrimidin-7-yl]-phenyl}-methanesulfonamide]",93.31,93.8,24
"Cc1ccc(C(=O)c2cnn3c(-c4cccc(N(C)S(C)(=O)=O)c4)ccnc23)cc1 [Example 63, N-methyl-N-{3-[3-(4-methylbenzoyl)-pyrazolo[1,5-a]pyrimidin-7-yl]-phenyl}-methanesulfonamide]",95.32,91.3,0
"CCN(c1cccc(-c2ccnc3c(C(=O)c4ccc(C)cc4)cnn23)c1)S(C)(=O)=O [Example 64, N-ethyl-N-{3-[3-(4-methylbenzoyl)-pyrazolo[1,5-a]pyrimidin-7-yl]-phenyl}-methanesulfonamide]",90.32,61.5,20.9
"C#CCN(c1cccc(-c2ccnc3c(C(=O)c4ccc(C)cc4)cnn23)c1)S(C)(=O)=O [Example 68, N-2-propynyl-N-{3-[3-(4-methylbenzoyl)-pyrazolo[1,5-a]pyrimidin-7-yl]-phenyl}-methanesulfonamide]",87.78,92.7,31.6
"CN(c1cccc(-c2ccnc3c(C(=O)c4ccccc4)cnn23)c1)S(C)(=O)=O [Example 69, N-methyl-N-{3-[3-(benzoyl)-pyrazolo[1,5-a]pyrimidin-7-yl]-phenyl}-methanesulfonamide]",96.90,99,36.7
"CCN(c1cccc(-c2ccnc3c(C(=O)c4ccccc4)cnn23)c1)S(C)(=O)=O [Example 70, N-ethyl-N-{3-[3-(benzoyl)-pyrazolo[1,5-a]pyrimidin-7-yl]-phenyl}-methanesulfonamide]",94.54,99.9,63.4
"CCN(c1cccc(-c2ccnc3c(C(=O)c4ccccc4)cnn23)c1)S(=O)(=O)CC [Example 72, N-ethyl-N-{3-[3-(benzoyl)-pyrazolo[1,5-a]pyrimidin-7-yl]-phenyl}-ethanesulfonamide]",93.78,98.6,44.9
"CN(c1cccc(-c2ccnc3c(C(=O)c4cccs4)cnn23)c1)S(=O)(=O)CC(F)(F)F [Example 76, N-methyl-N-{3-[3-(thiophene-2-carbonyl)-pyrazolo[1,5-a]pyrimidin-7-yl]-phenyl}-2,2,2-trifluoroethane-sulfonamide]",78.36,41.7,0
"CN(c1cccc(-c2ccnc3c(C(=O)c4cccs4)cnn23)c1)S(=O)(=O)c1ccccc1Cl [Example 77, N-methyl-N-{3-[3-(thiophene-2-carbonyl)-pyrazolo[1,5-a]pyrimidin-7-yl]-phenyl}-2-chlorobenzene-sulfonamide]",70.12,88.5,13.8
"CN(c1cccc(-c2ccnc3c(C(=O)c4cccs4)cnn23)c1)S(=O)(=O)c1cccc(Cl)c1 [Example 78, N-methyl-N-{3-[3-(thiophene-2-carbonyl)-pyrazolo[1,5-a]pyrimidin-7-yl]-phenyl}-3-chlorobenzenesulfonamide]",36.12,36.2,0
"CN(c1cccc(-c2ccnc3c(C(=O)c4cccs4)cnn23)c1)S(=O)(=O)c1ccc(Cl)cc1 [Example 79, N-methyl-N-{3-[3-(thiophene-2-carbonyl)-pyrazolo[1,5-a]pyrimidin-7-yl]-phenyl}-4-chlorobenzenesulfonamide]",51.50,52.9,0
"CN(c1cccc(-c2ccnc3c(C(=O)c4cccs4)cnn23)c1)S(=O)(=O)c1ccccc1C#N [Example 82, N-methyl-N-{3-[3-(thiophene-2-carbonyl)-pyrazolo[1,5-a]pyrimidin-7-yl]-phenyl}-2-cyanobenzene-sulfonamide]",39.87,31.8,0
"CN(c1cccc(-c2ccnc3c(C(=O)c4cccs4)cnn23)c1)S(=O)(=O)c1cccc(C#N)c1 [Example 83, N-methyl-N-{3-[3-(thiophene-2-carbonyl)-pyrazolo[1,5-a]pyrimidin-7-yl]-phenyl}-3-cyanobenzene-sulfonamide]",53.38,94.4,39.1
"CN(c1cccc(-c2ccnc3c(C(=O)c4cccs4)cnn23)c1)S(=O)(=O)c1ccc(C#N)cc1 [Example 84, N-methyl-N-{3-[3-(thiophene-2-carbonyl)-pyrazolo[1,5-a]pyrimidin-7-yl]-phenyl}-4-cyanobenzene-sulfonamide]",68.98,89.5,0
"CN(c1cccc(-c2ccnc3c(C(=O)c4cccs4)cnn23)c1)S(=O)(=O)c1cccs1 [Example 87, N-methyl-N-{3-[3-(thiophene-2-carbonyl)-pyrazolo[1,5-a]pyrimidin-7-yl]-phenyl}-2-thiophene-sulfonamide]",74.88,97.6,65.1
Cc1nc(C)c(S(=O)(=O)N(C)c2cccc(-c3ccnc4c(C(=O)c5cccs5)cnn34)c2)s1 [Example 91],72.85,84.1,4.8
"CN(c1cccc(-c2ccnc3c(C(=O)c4cccs4)cnn23)c1)S(=O)(=O)C1CC1 [Example 92, N-methyl-N-{3-[3-(thiophene-2-carbonyl)-pyrazolo[1,5-a]pyrimidin-7-yl]-phenyl}-cyclopropyl-sulfonamide]",74.36,95.7,36.5
"C=CS(=O)(=O)N(C)c1cccc(-c2ccnc3c(C(=O)c4cccs4)cnn23)c1 [Example 94, N-methyl-N-{3-[3-(thiophene-2-carbonyl)-pyrazolo[1,5-a]pyrimidin-7-yl]-phenyl}-vinylsulfonamide]",88.69,99.5,41.2
